Source: patent publication US9695155B2, “Herbicidal substituted pyrimidinyloxy benzene compounds” (E. I. DU PONT DE NEMOURS AND COMPANY, priority 2013, dated 2017)

Key:
[1] = tested on: yellow nutsedge; assay: Test C postemergence; format: in vivo, Cyperus esculentus; conditions: for Nutsedge, Yellow plant response rating: 31 g ai/ha; for Nutsedge, Yellow plant response rating / Plant response rating, Nutsedge, Yellow: scale 0 to 100 (0 no effect, 100 complete control)
Summary of the method: (§1)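 Visual injury score versus untreated controls, 0 = no effect, 100 = complete control, taken 13 to 15 days after treatment in the greenhouse. Pre-emergence pots held loam/sand; post-emergence plants grew in sphagnum peat/vermiculite mix and were sprayed at the 1- to 4-leaf stage.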

[2] = tested on: galium; assay: Test C postemergence; format: in vivo, Galium aparine; conditions: for Galium plant response rating / Plant response rating, Galium: scale 0 to 100 (0 no effect, 100 complete control)
Summary of the method: as §1

[3] = tested on: giant foxtail; assay: Test A preemergence; format: in vivo, Setaria faberii; conditions: for Foxtail, Giant plant response rating: 500 g ai/ha
Summary of the method: (§2)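 Visual 0–100 rating (100 = complete control) taken about 10 d post-treatment relative to untreated checks. Preemergence: directed soil spray on sown loam/sand pots. Postemergence: seedlings 2–10 cm, 1–2 leaf. Non-phytotoxic solvent formulation with surfactant.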

[4] = tested on: ragweed; assay: Test C postemergence; format: in vivo, Ambrosia elatior; conditions: for Ragweed plant response rating: 31 g ai/ha; for Ragweed plant response rating / Plant response rating, Ragweed: scale 0 to 100 (0 no effect, 100 complete control)
Summary of the method: as §1

[5] = tested on: waterhemp; assay: Test C preemergence; format: in vivo, Amaranthus rudis; conditions: for Waterhemp plant response rating: preemergence; for Plant response rating, Waterhemp: Preemergence, scale 0 to 100, 0 no effect, 100 complete control
Summary of the method: as §1

[6] = tested on: barnyardgrass; assay: Test A postemergence; format: in vivo, Echinochloa crus-galli; conditions: 0 to 100 scale where 0 is no effect and 100 is complete control
Summary of the method: as §2

[7] = tested on: sedge, umbrella; assay: Test B flooded paddy test; format: in vivo, Cyperus difformis; conditions: Flood, 250 g ai/ha; 0 to 100 scale where 0 is no effect and 100 is complete control
Summary of the method: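 2-leaf stage plants; pots flooded to 3 cm, compound added to paddy water, depth maintained. Greenhouse 13–15 d. Visual rating vs untreated controls, 0 (no effect) to 100 (complete control); dash = no result.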

[8] = tested on: morningglory; assay: Test C preemergence; format: in vivo, Ipomoea coccinea; conditions: for Morningglory plant response rating: preemergence; for Plant response rating, Morningglory: Preemergence, scale 0 to 100, 0 no effect, 100 complete control
Summary of the method: as §1

[9] = tested on: velvetleaf; assay: Test A postemergence; format: in vivo, Abutilon theophrasti; conditions: 0 to 100 scale where 0 is no effect and 100 is complete control; for Velvetleaf plant response rating: 125 g ai/ha; for Plant response rating, Velvetleaf: 500 g ai/ha
Summary of the method: as §2

[10] = tested on: wheat, winter; assay: Test C postemergence; format: in vivo, Triticum aestivum; conditions: for Wheat plant response rating: 31 g ai/ha; for Wheat plant response rating / Plant response rating, Wheat: scale 0 to 100 (0 no effect, 100 complete control)
Summary of the method: as §1

[11] = tested on: velvetleaf; assay: Test C preemergence; format: in vivo, Abutilon theophrasti; conditions: for Velvetleaf plant response rating: preemergence; for Plant response rating, Velvetleaf: Preemergence, scale 0 to 100, 0 no effect, 100 complete control
Summary of the method: as §1

[12] = tested on: corn; assay: Test C preemergence; format: in vivo, Zea mays; conditions: for Corn plant response rating: preemergence; for Plant response rating, Corn: Preemergence, scale 0 to 100, 0 no effect, 100 complete control
Summary of the method: as §1

[13] = tested on: giant foxtail; assay: Test C postemergence; format: in vivo, Setaria faberii; conditions: for Foxtail, Giant plant response rating / Plant response rating, Foxtail, Giant: scale 0 to 100 (0 no effect, 100 complete control)
Summary of the method: as §1

[14] = tested on: wheat; assay: Test A postemergence; format: in vivo, Triticum aestivum; conditions: 0 to 100 scale where 0 is no effect and 100 is complete control; for Wheat plant response rating: 125 g ai/ha; for Plant response rating, Wheat: 500 g ai/ha
Summary of the method: as §2

[15] = tested on: morningglory; assay: Test C postemergence; format: in vivo, Ipomoea coccinea; conditions: for Morningglory plant response rating: 31 g ai/ha; for Morningglory plant response rating / Plant response rating, Morningglory: scale 0 to 100 (0 no effect, 100 complete control)
Summary of the method: as §1

[16] = postemergence, visual rating, 13 to 15 days
[17] = 125 g ai/ha, postemergence, visual rating
[18] = Postemergence, 62 g ai/ha, 13 to 15 days
[19] = 31 g ai/ha, postemergence, visual rating, 13 to 15 days
[20] = 0 to 100 scale where 0 is no effect and 100 is complete control
[21] = 125 g ai/ha, scale 0 (no effect) to 100 (complete control)
[22] = 250 g ai/ha, scale 0 (no effect) to 100 (complete control)
[23] = 16 g ai/ha, postemergence, visual rating, 13 to 15 days
[24] = 16 g ai/ha, scale 0 to 100 (0 no effect, 100 complete control)
[25] = 62 g ai/ha, scale 0 (no effect) to 100 (complete control)
[26] = 16 g ai/ha, postemergence, 0 is no effect, 100 is complete control

## N#Cc1cccc(Oc2ncc(Cl)cn2)c1-n1cc(I)cn1 [Compound 204]
[1]; [16]
  Nutsedge, Yellow plant response rating: 0
[1]; [17]
  Plant response rating, Nutsedge, Yellow: 0
[1]; 250 g ai/ha, postemergence
  Plant response rating (0 to 100), Nutsedge, Yellow: 5
[1]; [18]
  Plant response rating, Nutsedge, Yellow: 10
[2]; [19]
  Galium plant response rating: 70
[2]; [17]
  Plant response rating, Galium: 75
[2]; 250 g ai/ha, postemergence
  Plant response rating (0 to 100), Galium: 100
[2]; [18]
  Plant response rating, Galium: 75
[3]; 125 g ai/ha
  Foxtail, Giant plant response rating (0 to 100 scale): 100
[3]; [20]
  Foxtail, Giant plant response rating: 100
[4]; [16]
  Ragweed plant response rating: 25
[4]; [17]
  Plant response rating, Ragweed: 35
[4]; 250 g ai/ha, postemergence
  Plant response rating (0 to 100), Ragweed: 75
[4]; [18]
  Plant response rating, Ragweed: 40
[5]; [21]
  Waterhemp plant response rating: 100
[5]; [22]
  Waterhemp plant response rating: 98
[5]; 62 g ai/ha
  Plant response rating, Waterhemp: 100
[6]; 125 g ai/ha
  Barnyardgrass plant response rating: 80
[6]; 500 g ai/ha
  Plant response rating, Barnyardgrass: 90
[7]
  Plant response rating, Sedge, Umbrella: 90
[8]; [21]
  Morningglory plant response rating: 98
[8]; [22]
  Morningglory plant response rating: 98
[8]; 62 g ai/ha
  Plant response rating, Morningglory: 98
[9]
  Velvetleaf plant response rating: 100
  Plant response rating, Velvetleaf: 100
[10]; [16]
  Wheat plant response rating: 5
[10]; [17]
  Plant response rating, Wheat: 10
[10]; 250 g ai/ha, postemergence
  Plant response rating (0 to 100), Wheat: 10
[10]; [18]
  Plant response rating, Wheat: 5
[11]; [21]
  Velvetleaf plant response rating: 98
[11]; [22]
  Velvetleaf plant response rating: 98
[11]; 62 g ai/ha
  Plant response rating, Velvetleaf: 85
[12]; [21]
  Corn plant response rating: 5
[12]; [22]
  Corn plant response rating: 35
[12]; 62 g ai/ha
  Plant response rating, Corn: 0
[13]; [19]
  Foxtail, Giant plant response rating: 5
[13]; [17]
  Plant response rating, Foxtail, Giant: 10
[13]; 250 g ai/ha, postemergence
  Plant response rating (0 to 100), Foxtail, Giant: 90
[13]; [18]
  Plant response rating, Foxtail, Giant: 5
[14]
  Wheat plant response rating: 40
  Plant response rating, Wheat: 70
[15]; [16]
  Morningglory plant response rating: 60
[15]; [17]
  Plant response rating, Morningglory: 98
[15]; 250 g ai/ha, postemergence
  Plant response rating (0 to 100), Morningglory: 95
[15]; [18]
  Plant response rating, Morningglory: 65

## N#Cc1cnn(-c2c(C#N)cccc2Oc2ncc(F)cn2)c1 [Compound 111]
[1]; [17]
  Plant response rating, Nutsedge, Yellow: 5
[1]; Postemergence, 62 g ai/ha
  Plant response rating, Nutsedge, Yellow: 5
[2]; [23]
  Galium plant response rating: 80
[2]; [17]
  Plant response rating, Galium: 100
[2]; Postemergence, 62 g ai/ha
  Plant response rating, Galium: 90
[3]; 125 g ai/ha, 0 to 100 scale where 0 is no effect and 100 is complete control
  Plant response rating, Foxtail, Giant: 100
[3]; 0 to 100 scale, 0 no effect, 100 complete control, approx. 10 days
  Foxtail, Giant plant response rating: 100
[4]; [17]
  Plant response rating, Ragweed: 90
[4]; Postemergence, 62 g ai/ha
  Plant response rating, Ragweed: 70
[5]; [24]
  Waterhemp plant response rating: 100
[5]; [25]
  Waterhemp plant response rating: 100
[5]; [21]
  Waterhemp plant response rating: 100
[5]; 31 g ai/ha
  Plant response rating, Waterhemp: 100
[6]; 125 g ai/ha
  Plant response rating, Barnyardgrass: 60
[6]; 500 g ai/ha
  Plant response rating, Barnyardgrass: 90
[7]
  Plant response rating, Sedge, Umbrella: 75
[8]; [24]
  Morningglory plant response rating: 20
[8]; [25]
  Morningglory plant response rating: 85
[8]; [21]
  Morningglory plant response rating: 100
[8]; 31 g ai/ha
  Plant response rating, Morningglory: 45
[9]
  Plant response rating, Velvetleaf: 100
[10]; [17]
  Plant response rating, Wheat: 5
[10]; Postemergence, 62 g ai/ha
  Plant response rating, Wheat: 0
[11]; [24]
  Velvetleaf plant response rating: 60
[11]; [25]
  Velvetleaf plant response rating: 90
[11]; [21]
  Velvetleaf plant response rating: 100
[11]; 31 g ai/ha
  Plant response rating, Velvetleaf: 60
[12]; [24]
  Corn plant response rating: 5
[12]; [25]
  Corn plant response rating: 5
[12]; [21]
  Corn plant response rating: 65
[12]; 31 g ai/ha
  Plant response rating, Corn: 5
[13]; [23]
  Foxtail, Giant plant response rating: 20
[13]; [17]
  Plant response rating, Foxtail, Giant: 65
[13]; Postemergence, 62 g ai/ha
  Plant response rating, Foxtail, Giant: 35
[14]
  Plant response rating, Wheat: 80
[15]; [17]
  Plant response rating, Morningglory: 98
[15]; Postemergence, 62 g ai/ha
  Plant response rating, Morningglory: 80

## N#Cc1cnn(-c2c(Oc3ncc(Cl)cn3)cccc2C(F)F)c1 [Compound 236]
[1]; [26]
  Plant response rating (0 to 100), Nutsedge, Yellow: 0
[1]; [16]
  Nutsedge, Yellow plant response rating: 0
[1]; [17]
  Plant response rating, Nutsedge, Yellow: 5
[1]; [18]
  Plant response rating, Nutsedge, Yellow: 0
[2]; [26]
  Plant response rating (0 to 100), Galium: 60
[2]; [19]
  Galium plant response rating: 75
[2]; [17]
  Plant response rating, Galium: 85
[2]; [18]
  Plant response rating, Galium: 80
[3]; 125 g ai/ha
  Foxtail, Giant plant response rating (0 to 100 scale): 100
[3]; [20]
  Foxtail, Giant plant response rating: 100
[4]; [26]
  Plant response rating (0 to 100), Ragweed: 10
[4]; [16]
  Ragweed plant response rating: 15
[4]; [17]
  Plant response rating, Ragweed: 75
[4]; [18]
  Plant response rating, Ragweed: 40
[5]; [24]
  Waterhemp plant response rating: 98
[5]; [21]
  Waterhemp plant response rating: 100
[5]; 62 g ai/ha
  Plant response rating, Waterhemp: 98
[6]; 125 g ai/ha
  Barnyardgrass plant response rating: 100
[6]; 500 g ai/ha
  Plant response rating, Barnyardgrass: 100
[7]
  Plant response rating, Sedge, Umbrella: 100
[8]; [24]
  Morningglory plant response rating: 0
[8]; [21]
  Morningglory plant response rating: 98
[8]; 62 g ai/ha
  Plant response rating, Morningglory: 55
[9]
  Velvetleaf plant response rating: 90
  Plant response rating, Velvetleaf: 100
[10]; [26]
  Plant response rating (0 to 100), Wheat: 0
[10]; [16]
  Wheat plant response rating: 0
[10]; [17]
  Plant response rating, Wheat: 0
[10]; [18]
  Plant response rating, Wheat: 0
[11]; [24]
  Velvetleaf plant response rating: 65
[11]; [21]
  Velvetleaf plant response rating: 100
[11]; 62 g ai/ha
  Plant response rating, Velvetleaf: 100
[12]; [24]
  Corn plant response rating: 0
[12]; [21]
  Corn plant response rating: 90
[12]; 62 g ai/ha
  Plant response rating, Corn: 10
[13]; [26]
  Plant response rating (0 to 100), Foxtail, Giant: 5
[13]; [19]
  Foxtail, Giant plant response rating: 50
[13]; [17]
  Plant response rating, Foxtail, Giant: 15
[13]; [18]
  Plant response rating, Foxtail, Giant: 15
[14]
  Wheat plant response rating: 50
  Plant response rating, Wheat: 100
[15]; [26]
  Plant response rating (0 to 100), Morningglory: 10
[15]; [16]
  Morningglory plant response rating: 45
[15]; [17]
  Plant response rating, Morningglory: 75
[15]; [18]
  Plant response rating, Morningglory: 70
